According to PMC12591170, “Glabridin‐Gold(I) Complex as a Novel Immunomodulatory Agent Targeting TrxR and MAPK Pathways for Synergistic Enhancement of Antitumor Immunity” (Advanced Science, 2025):

Columns and labels:
[1] = tested on: PD-L1; experiment: PD-L1 expression in HepG2 (western blot, immunofluorescence, flow cytometry); format: cell-based, human; details: HepG2, 24 h
Experimental: (§1) HepG2 cells were incubated in 6 cm culture dishes and treated with different complexes. The treated cells were lysed with lysis buffer (RIPA:PMSF:phosphatase inhibitor:protease inhibitor = 100:1:1:1). The lysed cells were further broken by sonication, and proteins were isolated by centrifugation. The protein concentrations were detected by BCA assay. 10% SDS PAGE gel was usually applied to separate the different kDa of proteins, and more than 200 kDa of proteins were separated using 8% SDS PAGE gel. After seperation, proteins were transferred onto polyvinylidene difluoride (PVDF) membranes. The target proteins were labeled by various specific primary antibodies at 4 °C overnight. Then, the membranes were treated with anti‐rabbit or anti‐mouse secondary antibody for 2 h. Tris buffered saline with tween 20 (TBST) was applied to wash the membranes after each operation above. The target proteins’ bands were detected by the enhanced chemiluminescence (ECL) procedure.
5 × 10^4 HepG2 cells were treated with complexes in 24‐well plates for 24 h. Subsequently, cells were fixed with 4% paraformaldehyde. Various specific antibodies were added for incubation at 4 °C overnight after cells were permeabilized with Triton X‐100 (except for membrane proteins) and blocked with BSA. Then, the cells were incubated with fluorescently‐labeled secondary antibodies in darkness for 2 h. After that, DAPI was added to stain nuclear in darkness. PBS was applied for washing after each operation above (Tris buffered saline (TBS) was applied for washing if phosphorylated protein was analyzed). The cell images were captured by the fluorescence microscopy.
4 × 10^5 HepG2 cells were incubated in 6‐well plates, and complexes were added in the wells. The cells were collected after incubation, and the treated cells were labeled with probes or fluorescently‐labeled antibodies. A flow cytometer was applied to analyze the labeled cells.

[2] = tested on: MAPK pathway (phosphorylated MEK1/2 and ERK1/2); experiment: In vivo MAPK pathway in tumor tissue; design: species or system C57BL/6 mice; details: western blot, day 13
[3] = tested on: immune cells in Hepa1-6 tumor and spleen tissue; experiment: In vivo immune cell and marker analysis (flow cytometry, immunofluorescence, immunohistochemistry); design: species or system C57BL/6 mice; details: for DC maturation in spleen and tumor tissues / macrophage polarization in tumor: flow cytometry and immunofluorescence; for T lymphocyte infiltration in tumor: flow cytometry and immunohistochemistry; for MDSC infiltration in tumor / Treg infiltration in tumor (Foxp3): vs model group, 13 days
[4] = tested on: Hepa1-6 tumors; experiment: In vivo antitumor assay, Hepa1-6 tumors; design: species or system C57BL/6 mice; details: after 13 days; 6d and OXA 5 mg kg^−1, GLA 10 mg kg^−1, i.p. every two days
[5] = design: method as in PMID 30146723; details: antitumor activity; cited from earlier work
[6] = tested on: HepG2 cells; experiment: MTT antiproliferative assay, HepG2; format: cell-based, human; details: 72 h MTT assay, Mean ± SD
Experimental: (§2) All cells were incubated at 37 °C by DMEM complete medium (containing 1% penicillin−streptomycin and 12% FBS) in 5% CO2 incubator. 2–5 × 10^3 cells were cultured in 96‐well plates and each well contained 100 µL complete medium. OXA was dissolved in water, and all other complexes were dissolved in DMF. After cells adhered in the wells, different concentrations of complexes were diluted in 100 µL complete medium and added in the wells. The final volume in the each well was 200 µL and the content of DMF was maximum 0.5%. After 72 h incubation, the antiproliferative activity was tested by MTT assay.

[7] = tested on: phosphorylated Akt; experiment: Western blot of phosphorylated Akt in HepG2; format: cell-based, human; details: HepG2, 24 h; GLA at 8 µM
Experimental: as §1

[8] = In vivo tolerability (body weight, survival, organ H&E)
Experimental: All mice were 6–8 weeks old males and procured from Hangzhou Medical College, located in Hangzhou, China. […] 2 × 10^6 Hepa1‐6 cells in 100 µL DMEM were subcutaneously seeded in underarms of C57BL/6 mice. […] Meanwhile, the mice weights and tumor volume were recorded, and the calculation formula of tumor volume was Volume = Width^2 × Length/2. After 13 days, all mice were sacrificed for collection of tumors, hearts, livers, spleens, lungs and kidneys. Collagenase IV (1 mg mL^−1) and DNase I (1 µg mL^−1) were applied to digest a part of the tumor tissue into cell suspension, and lysis buffer was used to remove red blood cells. The prepared cells above were stained with antibodies (anti‐CD3e‐FITC, and anti‐CD8a‐PE; anti‐CD11c‐APC, anti‐CD80‐PE, and anti‐CD86‐FITC; anti‐CD45‐Percp, anti‐CD11b‐APC, and anti‐Ly‐6G/Ly‐6C(Gr‐1)‐FITC; anti‐CD11b‐APC, anti‐CD206‐PE, and CD86‐FITC). CD3^+CD8^+ T cells, CD80^+CD86^+ DCs, CD11b^+Gr‐1^+ MDSCs, CD206^−CD86^+ M1‐type macrophages and CD206^+CD86^− M2‐type macrophages were analyzed by flow cytometry. Then, another part of tumor tissues were fixed with 4% paraformaldehyde, embedded in paraffin, cut into slices and stained with antibodies for immunofluorescence and immunohistochemistry analysis. H&E stain assays were applied for all tissue samples.

[9] = tested on: Hepa1-6 cells; experiment: MTT antiproliferative assay, Hepa1-6; format: cell-based; details: Mus musculus, Hepa1-6; 72 h MTT assay, Mean ± SD
Experimental: as §2

[10] = tested on: 293T cells; experiment: MTT assay, normal kidney cell line 293T; format: cell-based; details: Homo sapiens, HEK-293T; 72 h MTT assay, Mean ± SD
Experimental: as §2

[11] = tested on: MAPK pathway (phosphorylated MEK1/2 and ERK1/2); experiment: Western blot of MAPK pathway in HepG2; format: cell-based, human; details: HepG2, 24 h
Experimental: as §1

[12] = tested on: HIF-1α; experiment: Western blot of HIF-1α in HepG2; format: cell-based, human; details: HepG2, 24 h
Experimental: as §1

[13] = Stability analysis by 1H NMR; format: physicochemical
Experimental: 5 mM of complex 6d was incubated with DMSO‐d6 or the mixed solution (DMSO‐d6 /D2O = 9:1) or the same mixed solution with 5 mM of GSH for different times (0 – 72 h), and the ^1H NMR spectra were acquired. The stability of AF was determined by the same method.

[14] = tested on: PD-L1; experiment: In vivo PD-L1 expression in tumor tissue; design: species or system C57BL/6 mice; details: western blot, 13 days of treatment
[15] = Metabolic stability in whole blood; details: mouse

Row | IC50 ([6]; Homo sapiens, HepG2) [µM] | SMILES | PD-L1 expression (western blot) [1] | MAPK pathway activation (phosphorylation of MEK1/2 and ERK1/2) in tumor tissue [2] | DC maturation in spleen and tumor tissues [3] | macrophage polarization in tumor [3] | T lymphocyte infiltration in tumor [3] | Arg-1 expression in tumor tissue ([3]; immunofluorescence) | CRT exposure in tumor tissue ([3]; immunofluorescence) | MDSC infiltration in tumor [3] | Treg infiltration in tumor (Foxp3) [3] | tumor growth vs model group [4] | Akt phosphorylation (western blot) [7] | IC50 [9] [µM] | IC50 [10] [µM] | IC50 [6] [µM] | also measured
1 | 39.5 ± 4.68 | CC1(C)C=Cc2c(ccc3c2OC[C@@H](c2ccc(O)cc2O)C3)O1 [GLA, glabridin] | did not exhibit this effect | significantly inhibited | induced DC maturation | significantly promoted M1‐type macrophage polarization | did not enhance T lymphocyte infiltration | downregulation | did not induce CRT exposure | reducing the infiltration | reducing the infiltration | did not show an obvious effect on tumor growth | did not significantly affect Akt phosphorylation | 37.6 ± 1.73 | 43.4 ± 4.47 |  | suggested minimum effective dose [5]: 10 mg/kg; effect on mice body weight ([8]; 6d and OXA 5 mg kg^−1, GLA 10 mg kg^−1, i.p. every two days, OXA after nine days): no significant effect; organ tissue damage (H&E staining) ([8]; heart, liver, spleen, lung, kidney, day 13): did not cause noticeable damage to organ tissues
2 |  | CC(=O)OC[C@H]1O[C@@H]([S-])[C@H](OC(C)=O)[C@@H](OC(C)=O)[C@@H]1OC(C)=O.CCP(CC)CC.[Au+] [AF, auranofin, reference compound] | upregulation |  |  |  |  |  |  |  |  |  | inhibited Akt phosphorylation |  |  | 3.54 ± 0.34 | ERK1/2 phosphorylation (western blot, Figure S49) [11]: significantly enhancing ERK1/2 phosphorylation; HIF-1α expression (western blot) [12]: promoted; stability by 1H NMR [13]: remained stable; time after which 1H NMR spectra began to change / showed new peaks ([13]; 5 mM complex, DMSO-d6/D2O 9:1 containing GSH (5 mM)): 2 h
3 |  | O=C1[O][Pt]2([NH][C@@H]3CCCC[C@H]3[NH]2)[O]C1=O [OXA, oxaliplatin] | did not affect | promoted the phosphorylation | induced DC maturation | promoted M2‐type polarization | promoted T lymphocyte infiltration | promoted the expression | promoted CRT exposure | higher level of MDSC infiltration | higher number of infiltrated Tregs | significant tumor growth inhibition |  |  |  | 4.08 ± 0.97 | phosphorylation of MEK1/2 and ERK1/2 (western blot) [11]: no effect; GzmB expression in tumor tissue ([3]; immunofluorescence, OXA vs model group, 6d vs OXA group): did not increase obviously; PD-L1 expression in tumor tissue [14]: upregulated
4 | > 20 | CC1(C)C=Cc2c(ccc3c2OC[C@@H](c2ccc(OCCCCCBr)cc2OCCCCCBr)C3)O1 [3b] |  |  |  |  |  |  |  |  |  |  |  | > 20 | > 20 |  | 
5 |  | CC(C)[N+](C)(CCOC(=O)C1c2ccccc2Oc2ccccc21)C(C)C [Propantheline bromide] |  |  |  |  |  |  |  |  |  |  |  |  |  |  | -k [15]: 0.0216; half-life [15]: 32.1 min; remaining at 0 h [15]: 100%; remaining at 5 min [15]: 88.5%; remaining at 0.25 h [15]: 66%; remaining at 0.5 h [15]: 47.5%; remaining at 1 h [15]: 21.8%; remaining at 2 h [15]: 7.63%
